The subject of assay [1] is C. neoformans IFM 5844 cells. As to the kind of experiment: Cell membrane permeability, calcein-AM assay by flow cytometry. In kind it is cell-based, Cryptococcus neoformans. The following applies: half-MIC, 2 h, 30 °C, YNB. The method, then: The effect of the peptides on the cell membrane permeability of C. neoformans IFM 5844 cells was checked by flow cytometry with calcein-AM assay ([Olson, et al., 2001]). Calcein-acetoxymethyl ester (calcein-AM) is a membrane-permeable live-cell dye that, upon entering the cell, is cleaved by intracellular esterases, converting it into calcein, a membrane-impermeable fluorescent marker. The assay was carried out by suspending a total of 1 × 10^7 cells in 100 µl YNB medium containing 20 µg/mL indomethacin (Sigma-Aldrich, Saint Louis, MO, USA) and incubating them at 30 °C for 30 min to inhibit calcein transporters. Following this pre-treatment, membrane-permeable calcein-AM (Invitrogen, Waltham, MA, USA) was added to a final concentration of 5 µg/mL, and the samples were incubated at 30 °C for 3 h allowing the calcein-AM to enter the cells where esterases converted it to fluorescent calcein. After incubation, cells were washed twice with sterile distilled water and subsequently exposed to peptides at half-MIC concentrations in YNB medium for 2 h at 30 °C. Following peptide treatment, cells were washed twice with sterile distilled water, and fluorescence intensity was measured using a FlowSight® flow cytometer (Amnis-EMD Millipore) equipped with a 488-nm excitation laser. Intact cells stained with calcein-AM but not exposed to peptides served as controls. To ensure statistical reliability, four independent experiments were conducted, and fluorescence intensity was recorded from 10,000 cells per sample during each experiment.

For assay [2], the system named is Cryptococcus neoformans IFM 5844. As to the kind of experiment: microbe, parasite or virus in culture. The class given is cell-based. The following applies: five-fold diluted YNB + 1 % dextrose, 5 × 10^4 cells/mL, 30 °C, 72 h, OD 620 nm, ≥ 90 % growth inhibition, tested 25 to 0.39 µM, three biological replicates. The method, then:
The susceptibility of Cryptococcus neoformans IFM 5844 to 20 peptides (Supplementary Table 1) was tested in a widely used synthetic medium to cultivate yeasts (YNB) and in a serum-free medium what is able to support the proliferation of macrophage cells (X-VIVO).
YNB medium: five-fold diluted Difco Yeast Nitrogen Base w/o Amino Acids medium (Becton, Dickinson and Company, Sparks, MD, USA) supplemented with 1 % dextrose
The minimal inhibitory concentration (MIC) of each peptide was determined by using micro-dilution assay. The C. neoformans suspensions were adjusted to 5 × 10^4 cells/mL concentration in either YNB or X-VIVO medium. A 96-well microtiter plate was prepared by adding 95 µL suspension per well followed by 5 µL of serially two-fold diluted peptide solutions achieving a final volume of 100 µl. The concentration of the peptides ranged from 25 to 0.39 µM. For control samples, 5 µL pure medium was added to the yeast cell suspension instead of peptides. Plates were incubated at 37 °C for 48 h in X-VIVO medium and 30 °C for 72 h in YNB medium. After incubation, optical density was measured at 620 nm using a SPECTROstar Nano plate reader (BMG LabTech, Offenburg, Germany). […] The experiments were carried out in three independent biological replicates.

For assay [3] the test system is unchanged. As to the kind of experiment: Minimal fungicidal concentration (MFC) determination, spotting on YPD. To be noted: cultures from MIC assays diluted and spotted onto solid YPD, 30 °C, 48 h. The class given is cell-based. The method, then: Minimal fungicidal concentration (MFC) determination. To assess fungicidal activity, both control and peptide-treated cultures from the MIC assays were diluted 10-fold and 100-fold in sterile distilled water. Five µL from each dilution was then spotted onto solid YPD medium (1 % pepton, 1 % dextrose, 0.5 % yeast extract, 2 % agar). The plates were incubated at 30 °C for 48 h and fungal growth was evaluated. MFC was defined as the lowest peptide concentration at which no visible fungal growth was detected, indicating complete fungicidal activity.

Where [4] appears, read: Cryptococcus neoformans, IFM5844, read-out: MIC.

Like-named read-outs stand apart in the source and are kept apart here. Bridge positions count the residues as written; N and C are the ends. Peptide text beside a SMILES is read from it.

The text below walks through data of article PMC12164026, “Plant-derived nodule-specific cysteine-rich peptides as potent antifungal agents against Cryptococcus neoformans: mechanisms of action, chimeric peptide enhancement, and immunomodulatory effects” (Current Research in Microbial Sciences, 2025).

`CC(C)C[C@H](NC(=O)[C@@H]1CCCN1C(=O)[C@H](CCCNC(=N)N)NC(=O)[C@H](CCCNC(=N)N)NC(=O)[C@H](CS)NC(=O)[C@H](CCC(N)=O)NC(=O)[C@@H](N)CCC(N)=O)C(=O)N[C@@H](Cc1ccc(O)cc1)C(=O)N[C@@H](CS)C(=O)N[C@@H](CCCNC(=N)N)C(=O)N[C@@H](CCCNC(=N)N)C(=O)N[C@@H](CCCNC(=N)N)C(N)=O` [NCR247C] (H-QQCRRPLYCRRR-NH2; N-terminus assumed): the “calcein leakage / membrane permeability disruption” value in assay [1] is on record as “highest calcein leakage”. Also, the MIC in assay [2] (read-out: MIC) was 6.25 µM. For the same compound, in assay [3], the “fungistatic or fungicide mode of action” value was “fungicidal effect”.

With `CC[C@H](C)[C@H](NC(=O)[C@H](CCCCN)NC(=O)[C@H](Cc1ccccc1)NC(=O)[C@H](CC(C)C)NC(=O)[C@@H]1CCCN1C(=O)[C@H](CCCCN)NC(=O)[C@H](CCCCN)NC(=O)[C@H](CO)NC(=O)[C@@H](N)CCCCN)C(=O)N[C@@H](C)C(=O)N[C@@H](CCCCN)C(=O)N[C@@H](CS)C(=O)N[C@H](C(=O)N[C@@H](CCC(=O)O)C(=O)N[C@@H](CC(N)=O)C(=O)N[C@H](C(=O)N[C@@H](CS)C(=O)N[C@H](C(=O)N[C@@H](CC(C)C)C(=O)N[C@@H](C)C(=O)N[C@@H](Cc1ccc(O)cc1)C(=O)N[C@@H](CCCCN)C(N)=O)C(C)C)C(C)C)C(C)C` [NCR169C17–38W10,20/A] (H-KSKKPLFKIAKCVENVCVLAYK-NH2; N-terminus assumed), the “calcein leakage / membrane permeability disruption” value in assay [1] was “highest calcein leakage”. In addition, the MIC in assay [2] (read-out: MIC) is recorded as 6.25 µM. The “fungistatic or fungicide mode of action” value in assay [3] is “fungicidal effect”.

Turning to `C[C@@H]1[C@H](O)[C@@H](C)/C=C/C=C/C=C/C=C/C=C/C=C/C=C/[C@H](O[C@@H]2O[C@H](C)[C@@H](O)[C@H](N)[C@@H]2O)C[C@@H]2O[C@](O)(C[C@@H](O)C[C@@H](O)[C@H](O)CC[C@@H](O)C[C@@H](O)CC(=O)O[C@H]1C)C[C@H](O)[C@H]2C(=O)O` [amphotericin B, reference compound], the MIC in assay [2] (setting [4]) was 1.56 µM.

In the case of “CKTNKDCP [NCR335C9–16, short derivative of NCR335 C-terminal region]”, the MIC result in assay [2] is “lacked inhibitory effect”.

On to “HFSLILSDCKTNKDCP [NCR335C1–16, short derivative of NCR335 C-terminal region]”, for which the MIC result in assay [2] is “lacked inhibitory effect”.

Turning to `CC[C@H](C)[C@H](NC(=O)[C@@H]1CCCN1C(=O)[C@@H](NC(=O)[C@H](CS)NC(=O)[C@H](Cc1ccc(O)cc1)NC(=O)[C@H](CO)NC(=O)[C@H](CCCCN)NC(=O)[C@H](CCCNC(=N)N)NC(=O)[C@H](CS)NC(=O)[C@H](CCCNC(=N)N)NC(=O)[C@@H](NC(=O)[C@H](CC(N)=O)NC(=O)[C@H](C)NC(=O)[C@H](CCCNC(=N)N)NC(=O)[C@H](CCCNC(=N)N)NC(=O)[C@H](CC(C)C)NC(=O)[C@H](CCCCN)NC(=O)[C@@H]1CCCN1C(=O)[C@H](CS)NC(=O)[C@H](CC(=O)O)NC(=O)[C@H](CCCCN)NC(=O)[C@H](CC(N)=O)NC(=O)[C@@H](NC(=O)[C@H](CCCCN)NC(=O)[C@H](CS)NC(=O)[C@H](CC(=O)O)NC(=O)[C@H](CO)NC(=O)[C@H](CC(C)C)NC(=O)[C@@H](NC(=O)[C@H](CC(C)C)NC(=O)[C@H](CO)NC(=O)[C@H](Cc1ccccc1)NC(=O)[C@@H](N)Cc1c[nH]cn1)[C@@H](C)CC)[C@@H](C)O)C(C)C)C(C)C)C(N)=O` [NCR335C1–33] (H-HFSLILSDCKTNKDCPKLRRANVRCRKSYCVPI-NH2; N-terminus assumed), in assay [3], the “fungistatic or fungicide mode of action” value was “fungicidal effect”.

With “RLNTTFRPLNFKMLRFWGQNRNIMKHRGQKVHFSLILSDCKTNKDCPKLRRANVRCRKSYCVPI [NCR335, 64-amino-acid-long cationic M. truncatula NCR peptide]”, the MIC in assay [2] (read-out: MIC) is given as 3.12 µM.

For the compound `CC[C@H](C)[C@H](NC(=O)[C@H](CCCCN)NC(=O)[C@H](Cc1ccccc1)NC(=O)[C@H](CC(C)C)NC(=O)[C@@H]1CCCN1C(=O)[C@H](CCCCN)NC(=O)[C@H](CCCCN)NC(=O)[C@H](CO)NC(=O)[C@@H](N)CCCCN)C(=O)N[C@@H](Cc1c[nH]c2ccccc12)C(=O)N[C@@H](CCCCN)C(=O)N[C@@H](CS)C(=O)N[C@H](C(=O)N[C@@H](CCC(=O)O)C(=O)N[C@@H](CC(N)=O)C(=O)N[C@H](C(=O)N[C@@H](CS)C(=O)N[C@H](C(=O)N[C@@H](CC(C)C)C(=O)N[C@@H](Cc1c[nH]c2ccccc12)C(=O)N[C@@H](Cc1ccc(O)cc1)C(=O)N[C@@H](CCCCN)C(N)=O)C(C)C)C(C)C)C(C)C` [NCR169C17–38] (H-KSKKPLFKIWKCVENVCVLWYK-NH2; N-terminus assumed), in assay [1], the “calcein leakage / membrane permeability disruption” value was “highest calcein leakage”. Further, in assay [2] (read-out: MIC), the MIC is listed as 3.12 µM. In assay [3], the “fungistatic or fungicide mode of action” value was “fungicidal effect”.

Regarding `CC[C@H](C)[C@H](NC(=O)[C@H](CCCCN)NC(=O)[C@H](Cc1ccccc1)NC(=O)[C@H](CC(C)C)NC(=O)[C@@H]1CCCN1C(=O)[C@H](CCCCN)NC(=O)[C@H](CCCCN)NC(=O)[C@H](CO)NC(=O)[C@@H](N)CCCCN)C(=O)N[C@@H](Cc1c[nH]c2ccccc12)C(=O)N[C@@H](CCCCN)C(=O)N[C@H]1CSSC[C@@H](C(=O)N[C@H](C(=O)N[C@@H](CC(C)C)C(=O)N[C@@H](Cc2c[nH]c3ccccc23)C(=O)N[C@@H](Cc2ccc(O)cc2)C(=O)N[C@@H](CCCCN)C(N)=O)C(C)C)NC(=O)[C@H](C(C)C)NC(=O)[C@H](CC(N)=O)NC(=O)[C@H](CCC(=O)O)NC(=O)[C@H](C(C)C)NC1=O` [NCR169C17–38ox] (H-KSKKPLFKIWKCVENVCVLWYK-NH2; disulfide 12-17; N-terminus assumed), the MIC in assay [2] (read-out: MIC) amounted to 3.12 µM. Further, the “fungistatic or fungicide mode of action” value in assay [3] is listed as “fungicidal effect”.

As to “HFSLILSD [NCR335C1–8, short derivative of NCR335 C-terminal region]”, in assay [2], the MIC result is recorded as “lacked inhibitory effect”.

Take “KLRRANVRCRK [NCR335C17–27, further truncation of NCR335C17–33]”: the MIC result in assay [2] is given as “lacked inhibitory effect”.

On to “FWGQNRNIMKHRGQ [NCR335N16–29, 14 amino acid-long N-terminal fragment of NCR335]”, for which the MIC result in assay [2] was “ineffective”.

As for `OC(Cn1cncn1)(Cn1cncn1)c1ccc(F)cc1F` [Fluconazole, fluconazole, reference compound], the MIC in assay [2] (setting [4]) was 12.5 µM.
